# Test results taken from US5004756A, “Anti-cancer activity potentiator” (priority 1988, dated 1991).
# Tests used:
# [1] = system: clinically isolated human cancer cells (lung adenocarcinoma, lung squamous cell carcinoma, osteosarcoma, ovarian carcinoma); test: Anti-tumor activity on clinically isolated human cancer cells, morphological changes (A-I Part 2); type: cell-based
# V79/ADM [2] = test: Anti-cancer activity potentiating action, colony formation, V79/ADM resistant cells (A-III); type: cell-based, Chinese hamster; conditions: V79/ADM; for IC50: Cricetulus griseus
# Protocol: (§1) The anti-cancer activity potentiating action of the malate of formula (I) was examined using Chinese hamster cells (sensitive cell line V79/S and ADM-resistant cell line V79/ADM), human hepatoma cells (sensitive cell line PLC/S and colchicin-resistant cell line PLC/Col) and mouse leukemia cells (sensitive cell line L5178Y/S) and aclarubicin-resistant cell line L5178Y/ACR).
# (§2) Of these tumor cells, the sensitive cells (400 cells) and the resistant cells (600 cells) were each incubated in 10 ml of Eagle's MEM medium containing 10% bovine serum for 24 hours, and then each of the test drugs indicated in Table 6 was added. Thereafter, the incubation was carried out for 9 days. The concentration (IC50 : micrograms/ml) of the test drug required to inhibit 50% of the colony formation (proliferation) of the tumor cells was calculated.
# (§3) (A) Chinese hamster V79 cells
# (§4) As anti-cancer agents, there were used adriamycin (ADM), aclarubicin (ACR), actinomycin D (ACD), 5-fluorouracil (5-FU), cytarabin (Ara-C), cisplatin (CDDP), methotrexate (MTX), mitomycin C (MMC), nimustine (ACNU), mitoxantrone, etoposide ([…]), vincristine (VCR), bleomycin (BLM) and peplomycin (PEP). For the sensitive cells, the anti-cancer agents were used in combination with 10 micrograms/ml of the malate of formula (I), and for the resistant cells, the anti-cancer agents were used in combination with the malate of formula (I) 3 micrograms/ml, 5 micrograms/ml, and 10 micrograms/ ml.
# V79/S [3] = test: Anti-cancer activity potentiating action, colony formation, V79/S parent cells (A-III); type: cell-based, Chinese hamster; conditions: V79/S; for IC50: Cricetulus griseus
# Protocol: as §1, §2, §3, §4
# V79/ADM [4] = test: Colony formation (proliferation) inhibition, ADM-resistant Chinese hamster cells (A-I Part 1); type: cell-based; conditions: Cricetulus griseus, 216 h
# Protocol: (§5) Sensitive cell line V79/S and ADM-resistant cell line V79/ADM of the Chinese hamster were used, and sensitive cell line PLC/S and cholchicin-resistant cell line PLC/Col, as human hepatoma cells.
# (§6) The sensitive cell lines (400 cells) or the resistant cell lines (600 cells) were each incubated for 24 hours in 10 ml of Eagle's MEM medium containing 10% bovine serum. Each of the drugs indicated in Table 1 below was dissolved in ethanol, and 50 microliters of the resulting solution was added to the medium. The incubation was further carried out for 9 days. The concentration of the drug which inhibits 50% of the colony formation (proliferation) of the tumor cells was calculated.
# (§7) V79/S and V79/ADM were tested by using all of the drugs described above, but PLC/S and PLC/Col were tested by using only the malate of formula (I), adriamycin and peplomycin.
# (§8) The concentrations (micrograms/ml) required to inhibit 50% of the proliferation of the tumor cells, expressed by IC50, are shown in Table 1.
# V79/S [5] = test: Colony formation (proliferation) inhibition, sensitive Chinese hamster cells (A-I Part 1); type: cell-based; conditions: Cricetulus griseus, 216 h
# Protocol: as §5, §6, §7, §8
# [6] = alone, Table 6, read-out: IC50, anti-cancer agent alone
# [7] = with compound (I) 5 μg/ml, read-out: IC50 in combination with compound (I)
# [8] = with compound (I) 10 μg/ml, read-out: IC50 in combination with compound (I)
# [9] = with compound (I) 3 μg/ml, read-out: IC50 in combination with compound (I)
molecule,measurement,setting,value
"O=c1[nH]cc(F)c(=O)[nH]1 [Example 5-FU, 5-fluorouracil]",Efficacy ratio (rated significant by Fisher's test),[1]; 10 μg/ml,1/8
same,IC50,V79/ADM [2]; [6],7.2 µM
same,IC50,V79/ADM [2]; [7],0.62 µM
same,Potentiation activity,V79/ADM [2]; with compound (I) 5 μg/ml,11.6 times
same,IC50,V79/S [3]; [6],9.7 µM
same,IC50,V79/S [3]; [8],2.1 µM
same,Potentiation activity,V79/S [3]; with compound (I) 10 μg/ml,4.6 times
"N[C@@H](Cc1ccc(N(CCCl)CCCl)cc1)C(=O)O [MPL, melphalan]",Efficacy ratio (rated significant by Fisher's test),[1]; 0.5 μg/ml,1/8
"CN(Cc1cnc2nc(N)nc(N)c2n1)c1ccc(C(=O)N[C@@H](CCC(=O)O)C(=O)O)cc1 [MTX, methotrexate]",Efficacy ratio (rated significant by Fisher's test),[1]; 3.0 μg/ml,1/8
same,IC50,V79/ADM [2]; [6],0.0078 µg/mL
same,IC50,V79/ADM [2]; [7],< 0.0025 µg/mL
same,Potentiation activity,V79/ADM [2]; with compound (I) 5 μg/ml,> 3.12 times
same,IC50,V79/S [3]; [6],0.014 µg/mL
same,IC50,V79/S [3]; [8],0.017 µg/mL
same,Potentiation activity,V79/S [3]; with compound (I) 10 μg/ml,0.8 times
same,IC50,V79/ADM [4],0.0078 µg/mL
same,IC50,V79/S [5],0.017 µg/mL
"O=C1c2c(O)ccc(O)c2C(=O)c2c(NCCNCCO)ccc(NCCNCCO)c21 [Mitoxantrone, mitoxantrone]",IC50,V79/ADM [2]; [6],0.36 µg/mL
same,IC50,V79/ADM [2]; [9],0.074 µg/mL
same,Potentiation activity,V79/ADM [2]; with compound (I) 3 μg/ml,4.9 times
same,IC50,V79/S [3]; [6],0.019 µg/mL
same,IC50,V79/S [3]; [8],0.0081 µg/mL
same,Potentiation activity,V79/S [3]; with compound (I) 10 μg/ml,2.3 times
same,IC50,"V79/ADM [4]; V79/ADM, 9 days, Table 1, read-out: IC50",0.36 µg/mL
same,IC50,"V79/S [5]; V79/S, 9 days, Table 1, read-out: IC50",0.019 µg/mL
"CC[C@]1(O)C[C@H]2CN(CCc3c([nH]c4ccccc34)[C@@](C(=O)OC)(c3cc4c(cc3OC)N(C=O)[C@H]3[C@@](O)(C(=O)OC)[C@H](OC(C)=O)[C@]5(CC)C=CCN6CC[C@]43[C@@H]65)C2)C1 [VCR, vincristine]",Efficacy ratio (rated significant by Fisher's test),[1]; 0.1 μg/ml,2/8
same,IC50,V79/ADM [2]; [6],0.73 µg/mL
same,IC50,V79/ADM [2]; [9],0.0351 µg/mL
same,Potentiation activity,V79/ADM [2]; with compound (I) 3 μg/ml,20.8 times
same,IC50,V79/S [3]; [6],0.0271 µg/mL
same,IC50,V79/S [3]; [8],0.00325 µg/mL
same,Potentiation activity,V79/S [3]; with compound (I) 10 μg/ml,8.3 times
"CC[C@]1(O)C[C@@H]2CN(CCc3c([nH]c4ccccc34)[C@@](C(=O)OC)(c3cc4c(cc3OC)N(C)[C@H]3[C@@](O)(C(N)=O)[C@H](O)[C@]5(CC)C=CCN6CC[C@]43[C@@H]65)C2)C1 [VDS, vindesine]",Efficacy ratio (rated significant by Fisher's test),[1]; 0.5 μg/ml,0/8
"CC[C@]1(O)C[C@@H]2CN(CCc3c([nH]c4ccccc34)[C@@](C(=O)OC)(c3cc4c(cc3OC)N(C)[C@H]3[C@@](O)(C(=O)OC)[C@H](OC(C)=O)[C@]5(CC)C=CCN6CC[C@]43[C@@H]65)C2)C1 [VLB, vinblastine]",Efficacy ratio (rated significant by Fisher's test),[1]; 0.1 μg/ml,3/8
bleomycin [BLM],Efficacy ratio (rated significant by Fisher's test),[1]; 1.0 μg/ml,2/8
same,"IC50, anti-cancer agent alone","V79/ADM [2]; alone, Table 6",0.56 µg/mL
same,IC50 in combination with compound (I),V79/ADM [2]; with compound (I) 3 μg/ml,0.0385 µg/mL
same,Potentiation activity,V79/ADM [2]; with compound (I) 3 μg/ml,14.5 times
same,"IC50, anti-cancer agent alone","V79/S [3]; alone, Table 6",2.1 µg/mL
same,IC50 in combination with compound (I),V79/S [3]; with compound (I) 10 μg/ml,0.01 µg/mL
same,Potentiation activity,V79/S [3]; with compound (I) 10 μg/ml,202 times
